Tests used:
[1] = test system: Monocotyledonous and dicotyledonous test plants; experiment: Post-emergence herbicidal action, greenhouse pot test, sprayed at the 2- to 3-leaf stage, 9-level rating after 2 to 3 weeks; format: in vivo; design: key: 9-level scale: 1 = complete damage, 9 = no effect; details: 250 g/ha, rated after 2 to 3 weeks, 9-level scale
In short: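 Plants grown in standard soil in pots; test substances sprayed at the 2- to 3-leaf stage at optimum dosage (500 l water/ha) as aqueous suspension or emulsion from formulated concentrates. Plants then kept in the greenhouse under optimum conditions; rated after 2 to 3 weeks on a 9-level scale (1=complete damage, 9=no effect).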

[2] = test system: Monocotyledonous and dicotyledonous test plants; experiment: Herbicidal action before emergence of the plants (pre-emergence action), greenhouse pot test, 9-level rating after 4 weeks; format: in vivo; design: key: 9-level scale: 1 = complete damage, 9 = no effect; details: 250 g/ha, rated after 4 weeks, 9-level scale
In short: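 Compounds applied pre-emergence as a spray (500 l water/ha) of aqueous suspension or emulsion onto soil immediately after sowing mono- and dicot species in pots. Greenhouse-grown; damage rated after 4 weeks on a 9-level scale (1=complete damage, 9=no effect).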

Structure (SMILES) | Post-emergence action rating, Abutilon [1] | Post-emergence action rating, Amaranth [1] | Post-emergence action rating, Chenop. [1] | Post-emergence action rating, Digitaria [1] | Post-emergence action rating, Echino. [1] | Post-emergence action rating, Ipopur. [1] | Post-emergence action rating, Panicum [1] | Post-emergence action rating, Xanth. [1] | Pre-emergence action rating, Abutilon [2] | Pre-emergence action rating, Amaranthus [2] | Pre-emergence action rating, Chenop. [2] | Pre-emergence action rating, Digitaria [2] | Pre-emergence action rating, Echino. [2] | Pre-emergence action rating, Panicum [2]
O=C(C1=C(O)C2CCC(C2)C1=O)c1ccc(C(F)(F)F)nc1COCC1CO1 (stereo not drawn) [A57-B52 (H5), 4-Hydroxy-3-(2-oxiranylmethoxymethyl-6-trifluoromethylpyridine-3-carbonyl)-bicyclo[3.2.1]oct-3-en-2-one] | 1 | 1 | 1 | 1 | 2 | 2 | 1 | 2 | 1 | 1 | 1 | 1 | 1 | 1
CCN(CC)CC.O=C(C1=C(O)C2CCC(C2)C1=O)c1ccc(C(F)(F)F)nc1COC1CCCO1 (stereo not drawn) [A837-B52 (Et3NH+)] | 2 | 2 | 1 | 2 | 2 | 2 | 2 | 2 | 1 | 1 | 1 | 1 | 2 | 1
COCOCc1nc(C(F)(F)F)ccc1C(=O)C1=C(O)C2CCC(C2)C1=O (stereo not drawn) [A8-B52] | 1 | 1 | 1 | 1 | 1 | 1 | 1 | 2 | 1 | 1 |  | 1 | 1 | 1
O=C(C1=C(O)C2CCC(C2)C1=O)c1ccc(C(F)(F)F)nc1COCCOC1CCCCO1 (stereo not drawn) [A842-B52] | 3 | 2 | 1 | 3 | 5 | 3 | 3 | 3 | 2 | 2 | 1 | 6 | 2 | 1
CCCOCCOCc1nc(C(F)(F)F)ccc1C(=O)C1=C(O)C2CCC(C2)C1=O (stereo not drawn) [A841-B52] | 3 | 1 | 1 | 4 | 4 | 3 | 2 | 3 | 1 | 1 | 1 | 2 | 1 | 1
CCOCCOCc1nc(C(F)(F)F)ccc1C(=O)c1cnn(C)c1OS(C)(=O)=O [A11-C28] | 3 | 2 | 1 | 4 | 4 | 3 | 3 | 3 | 2 | 1 | 1 | 2 | 1 | 2
COCc1nc(C(F)(F)F)ccc1C(=O)c1cnn(C)c1O [A1-C5] | 2 | 2 | 1 | 2 | 2 | 2 | 4 | 4 | 2 | 2 | 1 | 2 | 1 | 2
CC(C)(C)C(=O)OCc1nc(C(F)(F)F)ccc1C(=O)C1=C(O)C2CCC(C2)C1=O (stereo not drawn) [A839-B52] | 2 | 2 | 1 | 2 | 2 | 2 | 2 | 2 | 1 | 1 | 1 | 3 | 2 | 1
